Source: PubChem BioAssay (NCI)
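Grown in 96-well plates, cells were treated for 48 hours with each compound at five concentrations. Insufficient inhibition: endpoint recorded as highest concentration tested. GI50 = concentration required for 50% inhibition of growth. TGI: total growth inhibition.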

Tests used:
Test in all cases: NCI anticancer screen, dose series, 48 h
786-0 renal = system: 786-0 renal
SF-539 CNS = system: SF-539 CNS
OVCAR-3 ovarian = system: OVCAR-3 ovarian
HCT-15 colon = system: HCT-15 colon
RPMI-8226 leukemia = system: RPMI-8226 leukemia
T-47D breast = system: T-47D breast
HOP-62 NSCLC = system: HOP-62 NSCLC
NCI/ADR-RES ovarian = system: NCI/ADR-RES ovarian
SNB-75 CNS = system: SNB-75 CNS
HL-60(TB) leukemia = system: HL-60(TB) leukemia

Structure (SMILES) | TGI (786-0 renal) | TGI (SF-539 CNS) | TGI (OVCAR-3 ovarian) | TGI (HCT-15 colon) | TGI (RPMI-8226 leukemia) | TGI (T-47D breast) | TGI (HOP-62 NSCLC) | TGI (NCI/ADR-RES ovarian) | TGI (SNB-75 CNS) | TGI (HL-60(TB) leukemia) | GI50 (SF-539 CNS) | GI50 (OVCAR-3 ovarian) | GI50 (T-47D breast) | GI50 (HOP-62 NSCLC) | GI50 (SNB-75 CNS) | GI50 (NCI/ADR-RES ovarian) | GI50 (RPMI-8226 leukemia)
O=C(O)CC(Cc1ccccc1)C(=O)O (stereo not given) | > 100 µM | > 100 µM | > 100 µM | > 100 µM | > 100 µM | > 100 µM | > 100 µM | > 100 µM |  |  |  |  |  |  |  |  | 
C(=C/c1ccc2nc(-c3ccc(/C=C/C=N/NC4=NCCCN4)cc3)cn2c1)/C=N/NC1=NCCCN1 | > 100 µM | > 100 µM | > 100 µM | > 100 µM | > 100 µM | > 100 µM | > 100 µM | 51.7 µM | > 100 µM |  |  |  |  |  |  |  | 
C/C(=C/CC[C@](C)(OC1OC(CO)C(O)C(O)C1OC1OC(C)C(O)C(O)C1O)[C@H]1CC[C@]2(C)[C@@H]1CC[C@@H]1[C@@]3(C)CC[C@H](O)C(C)(C)[C@@H]3C[C@H](O)[C@]12C)CO (stereo not given in full) | > 100 µM | > 100 µM | > 100 µM |  | > 100 µM | > 100 µM | > 100 µM | > 100 µM | > 100 µM | > 100 µM |  |  |  |  |  |  | 
CCNc1nc2ccccc2nc1NCC | > 100 µM | > 100 µM | > 100 µM | > 100 µM | > 100 µM |  |  | > 100 µM | > 100 µM | > 100 µM |  |  |  |  |  |  | 
O=C(/C=C/c1ccco1)c1ccc(Nc2ccnc3cc(Cl)ccc23)cc1 |  | > 100 µM | > 100 µM |  |  | > 100 µM | > 100 µM | > 100 µM | > 100 µM |  | 15 µM | 4.73 µM | 82.2 µM | > 100 µM | > 100 µM | 75.8 µM | 
COc1ccc(/C=C/C=C2C(=O)NC(=S)NC2=O)cc1 | 5.47 µM | 15.8 µM | 29 µM | 8.68 µM | 18.2 µM | > 100 µM | > 49.8 µM | 12.3 µM | 47.2 µM |  |  |  |  |  |  |  | 
Nc1c(Cl)ncnc1NCC1(CO)CCC1 | > 100 µM | > 100 µM | > 100 µM | > 100 µM | > 100 µM |  | > 100 µM | > 100 µM | > 100 µM | > 100 µM |  |  |  |  |  |  | 
COc1ccc(/C=N/N=C(N)N)c(C(=O)O)c1OC |  | > 100 µM | > 100 µM | > 100 µM | > 100 µM |  |  |  | > 100 µM | > 100 µM |  |  |  |  |  |  | 
c1ccc2c3c(c(N4CCNCC4)nc2c1)CCCC3 | 27.7 µM | 23.2 µM | 40.1 µM | 29.3 µM |  | 28.5 µM | 48.4 µM | 27.3 µM | 27 µM | 24.3 µM |  |  |  |  |  |  | 
C=CCCCN1C(=O)C2C3c4ccccc4C(C=O)(c4ccccc43)C2C1=O (stereo not given) | 26.6 µM |  | 23.4 µM | 21.5 µM | 28.5 µM | > 100 µM | 28.2 µM | 58.2 µM |  | 34.5 µM |  |  |  |  |  |  | 
O=C(OCc1ccccc1[N+](=O)[O-])N1c2ccccc2[C@@]23O[C@]24CCC[C@H]3C#C/C=C\C#C[C@H]14 | > 100 µM | > 100 µM | > 100 µM | > 100 µM |  | > 100 µM |  | > 100 µM |  | 25.9 µM |  |  |  |  |  |  | 
CCOC(=O)C(C(N)=O)c1nc2cc([N+](=O)[O-])ccc2nc1/C=C(\O)c1ccc(C)cc1 (stereo not given) | 28.7 µM | 36.5 µM | 31.1 µM | > 82.2 µM | 40.6 µM | > 100 µM | 33.9 µM | 53 µM | 42 µM |  |  |  |  |  |  |  | 
Brc1ccc2c(c1)[C@H]1CCc3c([nH]c4ccccc34)[C@H]1N2 |  | 16.4 µM | 25.3 µM |  | 23.2 µM | 16.8 µM | 25.6 µM | 29.6 µM | 35.7 µM |  |  |  |  |  |  |  | 
N#CCCN(CCN(CCN(C(=O)Nc1ccccc1)c1ccccc1)C(=O)Nc1ccccc1)C(=O)Nc1ccccc1 | > 100 µM | > 100 µM | > 100 µM | > 100 µM | > 100 µM | > 100 µM | > 100 µM | > 100 µM | > 100 µM |  |  |  |  |  |  |  | 
CCCCc1ccc(Nc2nc(N)c3[nH]cnc3n2)cc1 | 33.2 µM | 43.4 µM | 51.9 µM | 66.1 µM | 77.5 µM | > 100 µM |  | 37.2 µM |  | 42.5 µM |  |  |  |  |  |  | 
CO/C=C(/C(=O)OC)c1ccccc1[C@H]1C[C@@H]1c1ccc(OC)cc1 | > 100 µM | 38 µM | 49 µM | 66.1 µM | 58.5 µM | 56.7 µM | 98 µM | 52.6 µM |  | 62.4 µM |  |  |  |  |  |  | 
COC12OC3(C4OC41)C(C(=O)O[C@H]3CO[Si](C)(C)C(C)(C)C)C2S(=O)(=O)c1ccccc1 (stereo not given in full) | > 7.71 µM | > 100 µM | > 100 µM | > 100 µM | 11.7 µM | > 100 µM | > 5.97 µM | > 100 µM |  | 7.66 µM |  |  |  |  |  |  | 
NC1=CN2c3ccccc3N(CC(=O)N3CCOCC3)C2C=C1 (stereo not given) | > 100 µM | > 100 µM |  | > 100 µM |  | > 100 µM | > 100 µM | > 100 µM | > 100 µM | > 100 µM |  |  |  |  |  |  | 
CSc1nc(NC2CC2)c2c(n1)Sc1nc3ccccc3n1N=C2 | 21 µM | 27.4 µM | 40.3 µM | > 100 µM |  |  | 39.6 µM | 69.7 µM |  |  |  |  |  |  |  |  | 
Oc1cccc(-c2cc(=S)ss2)c1 | 36.2 µM | 35 µM |  | 31.4 µM | 5.91 µM |  | 34.3 µM | 53.7 µM |  | 48.5 µM |  |  |  |  |  |  | 
Nc1nc(-c2ccccc2)cc(-c2ccc(F)cc2)c1-c1ccc(Cl)cc1 | > 100 µM |  | > 100 µM | > 100 µM | > 100 µM | > 100 µM | > 100 µM | > 100 µM | > 100 µM | > 100 µM |  |  |  |  |  |  | 
CN(C)CCNc1ccccn1 | > 100 µM |  | > 100 µM | > 100 µM |  | > 100 µM | > 100 µM | > 100 µM |  | > 100 µM |  |  |  |  |  |  | 
N.N.NCCCCN.O=C([O-])CCl.O=C([O-])CCl.O=C([O-])CCl.O=C([O-])CCl.[Pt+4].[Pt+4] | > 50 µM | > 50 µM | > 50 µM | > 50 µM | > 50 µM |  | > 50 µM |  | > 50 µM | > 50 µM |  |  |  |  |  |  | > 50 µM
Clc1ccc2nc3c(c(-c4ccccc4)nn3-c3ccccc3)c(-c3ccccc3)c2c1 | > 100 µM |  | > 100 µM | > 100 µM | > 100 µM | > 100 µM | > 100 µM | > 100 µM | > 100 µM | > 100 µM |  |  |  |  |  |  | 
